The values below come from US10317393B2, “Alkynyl sugar analogs for labeling and visualization of glycoconjugates in cells” (Academia Sinica, priority 2007, dated 2019).

Molecules are shown by their SMILES.

Series [1] has as its system Jurkat cells. Description: Cell growth analysis after treatment with sugar analogs (cell numbers counted). The format is cell-based, human. To be noted: for toxicity (growth rate): 3 days. How it is done: FIGS. 1A, 1B, 1C and 1D show analysis of cells labeled with Fuc analogs. […] Jurkat cells were grown in the presence of 200 micromolar each Fuc analog for 3 days before cell numbers were counted. The data represent the percentage of treated cells vs. untreated cells (n=4).
It is also disclosed how treatment with exogenous Fuc analog affects cell growth rate. […] In contrast, the addition of 200 micromolar azido Fuc 2 inhibits cell growth considerably, by 65% when compared with the untreated cells. […] Such toxicity may lead to global change in expression, therefore a nontoxic probe is preferable for accurate probing of glycoconjugate expression.
(§1) Jurkat cells were cultivated (2×10^6/10 ml) in RPMI medium 1640 supplemented with 10% FCS and various concentrations of peracetylated alkynyl sugars 1, 2, or 4 or native sugars 3 or 5, for 1-3 days at 37° C. Cells were then harvested, washed with 0.1% FCS/PBS, and resuspended (10^6 cells) in 100 microliters of click reaction solution (0.1 mM biotin probe 6 or fluorogenic probe 7/0.1 mM Tris-thiazoleamine catalyst/0.1 mM CuSO4/0.5 mM sodium ascorbate, in PBS). The reaction was incubated at room temperature for 30 min, and then the cells were washed twice with 0.1% FCS/PBS. Cells treated with biotin probe 6 were subsequently stained with fluorescein-conjugated streptavidin (0.5 microgram per sample in 50 microliters of 1% FCS/PBS) for 30 min at 4° C., and washed three times with 1% FCS/PBS. Data were acquired by BD LSR II with FACSDiva software, and were analyzed by CellQuestPro software (BD Biosciences). Detection of fluorescent adduct with probe 7 was monitored with a 408 nm laser and a 440/40 bandpass filter for excitation and emission, respectively.

The test system of series [2] is Jurkat cells. Description: Flow cytometry of cell surface labeling with fluorogenic coumarin probe 7. To be noted: 200 micromolar Fuc analogs or 25 micromolar ManNAc analogs, 3 days. The format is cell-based, human. The source says:
FIGS. 3A and 3B show tagging of cell surface glycans by derivatized alkynyl sugar analogs and subsequent labeling with probe 3-azido-7-hydroxycoumarin 7. Shown is flow cytometry analysis of Jurkat cells tagged with 200 micromolar derivatized alkynyl Fuc 1 shown in FIG. 3A or 25 micromolar alkynyl-derivatized ManNAc 4 shown in FIG. 3B for 3 days. The fluorescence intensity was detected after labeling with a coumarin probe 7. Filled histogram, cells treated with control sugar analog 3 or 5; open histogram, cell treated with alkynyl-derivatized sugar 1 or 4.
Recently, another click-activated azido-derivatized fluorescent probe, based on coumarin, was reported in the literature. In one aspect of the disclosure, the fluorogenic probe, 3-azido-7-hydroxycoumarin 7, is used as the coupling partner for alkynyl tags on labeled glycoconjugates.
Jurkat cells were cultivated (2×10^6/10 ml) in RPMI medium 1640 supplemented with 10% FCS and various concentrations of peracetylated alkynyl sugars 1, 2, or 4 or native sugars 3 or 5, for 1-3 days at 37° C. […] Data were acquired by BD LSR II with FACSDiva software, and were analyzed by CellQuestPro software (BD Biosciences). Detection of fluorescent adduct with probe 7 was monitored with a 408 nm laser and a 440/40 bandpass filter for excitation and emission, respectively.
A general note: In flow cytometry, cells or beads pass a laser one at a time.

Series [3] deals with Jurkat cells. Description: Flow cytometry of cell surface labeling after click with biotin azide probe 6 and fluorescein-conjugated streptavidin. The format is cell-based, human. The protocol:
In another exemplary implementation, a method for labeling fucosylated glycoconjugates at the cell surface is disclosed. In one aspect, Jurkat cells are grown in the presence of derivatized alkynyl Fuc 1. After treatment, cells are subjected to CuAAC (click chemistry) to couple biotinylated azido probe 6 with any alkynyl Fuc-bearing glycoconjugates, and stained with fluorescein-conjugated streptavidin.
Labeling alkynyl Fuc-bearing cell surface glycoconjugates is illustrated in FIGS. 1A, 1B, 1C and 1D. FIGS. 1A, 1B, 1C and 1D show analysis of cells tagged with Fuc analogs analyzed by monitoring fluorescence intensity with flow cytometry after labeling with a biotin azide probe 6 and staining cells with fluorescein-conjugated streptavidin. […] Without being bound by theory, incorporation of the derivatized Fuc analogs into fucosylated glycoconjugates likely occurs via the Fuc salvage pathway.
It is now disclosed in one exemplary implementation of the disclosure that treating cells with derivatized alkynyl ManNAc 4 results in derivatized alkyne-bearing sialyl glycoconjugates. In one aspect of the method, cells are treated with 4 at various concentrations for one to 3 days. Modified sugar analogs and probes used in this disclosure are shown in Scheme 1. Tagging of the cell surface glycoconjugates by derivatized alkynyl ManNAc is illustrated in FIGS. 2A, 2B, 2C and 2D. FIGS. 2A, 2B, 2C and 2D show analysis of cells labeled with ManNAc analogs analyzed by monitoring fluorescence intensity with flow cytometry after clicking on the biotin azide probe 6 and staining cells with fluorescein-conjugated streptavidin. […] Compared with the MFI of controls, there was significant labeling on cells treated with derivatized alkynyl ManNAc 4, even at concentrations as low as 3 micromolar (15-fold increase). […] The optimal concentration of 4 for tagging sialyl glycoconjugates falls between 25 and 50 micromolar.
as §1

Another series deals with cell extracts. Description: Labeling and detection of glycoconjugates in cell extracts (SDS/PAGE, Western blot). The conditions noted are these: 200 micromolar Fuc or 25 micromolar ManNAc analogs, 3 days. The format is cell-based. The source says: Because the herein disclosed labeling system enables the identification of cellular glycoconjugates, it can also serve well in glyco-proteomic applications aimed at discovering unknown glycosylated targets for diagnostic and therapeutic purposes. […] Soluble lysate fractions are labeled with biotin probe 6, fluorogenic probe 7, or a standard azido-derivatized rhodamine probe used in proteomics before separating proteins by SDS/PAGE. […] Positive fluorescent signal was also detected in alkynyl positive protein lysate when labeled with fluorogenic 3-azido-7-hydroxycoumarin 7 and rhodamine probes (FIG. 6B and FIG. 11). […] Moreover, further processing, including a streptavidin/avidin enrichment or gel slice purification, will allow for comparative identification by proteomic mass spectrometry techniques of unknown glycoconjugates expressed at different cell status, for instance, un-differentiated verses differentiated cells, or normal verses cancer cells.
Cells were seeded at 3×10^6/8 ml per 10-cm dish and treated with control and test sugars (200 micromolar Fuc 3 vs. alkynyl derivatized Fuc 1, or 25 micromolar ManNAc 5 vs. alkynyl derivatized ManNAc 2) in growth medium at 37° C. […] Signal was developed with SuperSignal Chemiluminescent Substrate and detected by exposure to x-ray film. […] Rhodamine gels were analyzed.
A general note: A western blot detects proteins with antibodies after separation by electrophoresis.

For the molecule `C#CCCC(=O)N[C@@H]1C(OC(C)=O)O[C@H](COC(C)=O)[C@@H](OC(C)=O)[C@@H]1OC(C)=O` (some centres unmarked) [alkynyl ManNAc 4, 1,3,4,6-tetra-O-acetyl-N-4-pentynoylmannosamine], the “toxicity (growth rate)” value in the series with Jurkat cells [1] (above 100 micromolar) is reported as “more toxic”; with Jurkat cells [1] (between 25 and 50 micromolar), “little or no toxicity”. The “toxicity to cells (summary statement)” value in the series on Jurkat cells [1] (at levels required for efficient labeling) is reported as “not toxic”. The “fluorescent labeling after reacting with 3-azido-7-hydroxycoumarin probe” value in the series with Jurkat cells [2] is “significant fluorescent labeling”. For the same molecule, the “increase of MFI compared with controls” value in the series with Jurkat cells [3] (3 micromolar) is reported as 15 fold. For the same molecule, the “dose dependency of glycan tagging” value in the series with Jurkat cells [3] (3 days) is reported as “Dose-dependent labeling”. Moreover, the “fluorescence intensity / cell surface signal compared with control sugar-treated cells” value with Jurkat cells [3] (biotin probe 6/fluorescein-streptavidin) was “specific signal on the cell surface”. Besides, the “labeling signal in proteins by Western blot or fluorescence” value with cell extracts was “specific biotin-labeling signals”.
